Experimental data: patent publication US4794169A, “Pentapeptides with cell growth regulatory effects and a process for the preparation thereof” (Bio-Tech A/S, priority 1985, dated 1988)
Square brackets hold non-standard residues; d marks the D form. Peptide text beside a SMILES is read from it. pGlu = O=C1CC[C@@H](C(=O)O)N1

System: mouse epidermal mitotic rate
Assay: Change in mouse epidermal mitotic rate after intraperitoneal injection (Colcemid method)
Assay type: in vivo
Conditions: mouse epidermis, first three hours after i.p. injection, vs control animals from same cage
Procedure: In the following Table 1 in vivo results (change in mouse epidermal mitotic rate) have been described as example for four different new pentapeptides. The epidermal mitotic rate was measured for the first three hours after intraperitoneal injection of the new pentapeptides. Mitotic rate was determined by means of "Colcemid" (Demecolcine). A reduced rate was determined as a percentage in comparison with control animals from the same cage.

SMILES: C[C@H](NC(=O)[C@H](CC(=O)O)NC(=O)[C@H](CCC(=O)O)NC(=O)[C@@H]1CCC(=O)N1)C(=O)NCC(=O)O [Compound 3, pGlu--Glu--Asp--Ala--Gly] ([pGlu]EDAG-OH)
- Decrease in mitotic rate % (10^-13 moles of peptide injected per mouse): 36%

SMILES: O=C(O)CC[C@H](NC(=O)[C@@H]1CCC(=O)N1)C(=O)N[C@@H](CC(=O)O)C(=O)N[C@@H](CO)C(=O)NCC(=O)O [Compound 1, pGlu--Glu--Asp--Ser--Gly] ([pGlu]EDSG-OH)
- Decrease in mitotic rate % (10^-11 -10^-14 moles of peptide injected per mouse): 40-44%

SMILES: NC(=O)CC[C@H](NC(=O)[C@@H]1CCC(=O)N1)C(=O)N[C@@H](CC(=O)O)C(=O)N[C@@H](CO)C(=O)NCC(=O)O [Compound 2, pGlu--Gln--Asp--Ser--Gly] ([pGlu]QDSG-OH)
- Decrease in mitotic rate % (10^-11 moles of peptide injected per mouse): 39%
